Legend:
[1] = xn = mol fraction of the nth substance listed; conditions: for kinematic viscosity: 101 kPa, Liquid, Surface laser light scattering (SLLS); for surface tension liquid-gas: surface light scattering
[2] = for surface tension liquid-gas: surface light scattering; for kinematic viscosity: 101.33 kPa, Liquid, Surface laser light scattering (SLLS)

F/C=C/C(F)(F)F [trans-1,3,3,3-tetrafluoropropene] + FCF
[1]
Conditions	kinematic viscosity, x2 = 0.2985 [m2/s]	kinematic viscosity, x2 = 0.5697 [m2/s]	kinematic viscosity, x2 = 0.7501 [m2/s]	surface tension liquid-gas, x2 = 0.2985 [mN/m]	surface tension liquid-gas, x2 = 0.5697 [mN/m]	surface tension liquid-gas, x2 = 0.7501 [mN/m]
293.14 K	–	1.47e-07	1.37e-07	–	–	–
293.16 K	1.61e-07	–	–	8.46	8.02	7.74
303.16 K	–	1.34e-07	1.28e-07	–	–	–
303.17 K	1.43e-07	–	–	7.17	6.63	6.3
313.12 K	–	1.22e-07	1.14e-07	–	–	–
313.13 K	1.32e-07	–	–	5.93	5.34	4.91
323.13 K	1.23e-07	–	–	4.75	4.15	3.62
323.14 K	–	1.13e-07	1.04e-07	–	–	–
333.14 K	–	1.03e-07	9.75e-08	–	–	–
333.16 K	1.11e-07	–	–	3.62	2.89	2.41
343.11 K	–	9.31e-08	8.96e-08	–	–	–
343.12 K	1.02e-07	–	–	2.54	1.83	1.32
348.17 K	9.63e-08	–	–	2.06	1.34	0.83
348.19 K	–	8.74e-08	8.58e-08	–	–	–

FCF [difluoromethane]
[2]
Conditions	kinematic viscosity [m2/s]	surface tension liquid-gas [mN/m]
293.15 K	1.29e-07	7.4
303.15 K	1.17e-07	5.94
313.07 K	1.08e-07	4.35
323.15 K	9.98e-08	2.96
333.14 K	9.3e-08	1.67
343.16 K	7.95e-08	0.57
348.18 K	7.5e-08	0.14

C=C(F)C(F)(F)F [2,3,3,3-tetrafluoro-1-propene] + FCF
[1]
Conditions	kinematic viscosity [m2/s]	surface tension liquid-gas [mN/m]
293.15 K, x2 = 0.7945	1.28e-07	7.04
293.16 K, x2 = 0.5193	1.31e-07	6.55
293.21 K, x2 = 0.6988	1.28e-07	6.9
303.14 K, x2 = 0.7945	1.18e-07	5.57
303.16 K, x2 = 0.5193	1.2e-07	5.29
303.2 K, x2 = 0.6988	1.19e-07	5.49
313.14 K, x2 = 0.5193	1.09e-07	4.1
313.21 K, x2 = 0.6988	1.09e-07	4.1
313.26 K, x2 = 0.7945	1.08e-07	4.14
323.17 K, x2 = 0.5193	1.01e-07	2.96
323.19 K, x2 = 0.6988	9.91e-08	2.82
323.2 K, x2 = 0.7945	9.82e-08	2.83
333.14 K, x2 = 0.5193	9.15e-08	1.91
333.21 K, x2 = 0.6988	8.98e-08	1.66
333.21 K, x2 = 0.7945	8.85e-08	1.62
343.14 K, x2 = 0.5193	8.18e-08	0.97
343.16 K, x2 = 0.6988	7.93e-08	0.66
343.18 K, x2 = 0.7945	7.71e-08	0.59
